# Reference: PubChem BioAssay (NCI)
#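 96-well plates; 48 h exposure; 5 concentrations. Endpoints by linear interpolation between flanking doses. Not reached: highest tested concentration assigned. GI50 marks 50% less growth. TGI: concentration producing complete growth inhibition.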
# How the values were obtained:
# Assay in all cases: DTP human tumour cell line panel, 48 h
# SK-MEL-28 melanoma = system: SK-MEL-28 melanoma
# HOP-92 NSCLC = system: HOP-92 NSCLC
# MDA-MB-435 = system: MDA-MB-435
# MDA-MB-231 breast = system: MDA-MB-231 breast
# HL-60(TB) leukemia = system: HL-60(TB) leukemia
# HCT-15 colon = system: HCT-15 colon
# MALME-3M melanoma = system: MALME-3M melanoma
# LOX IMVI melanoma = system: LOX IMVI melanoma
# RXF 393 renal = system: RXF 393 renal
# HCT-116 colon = system: HCT-116 colon
# COLO 205 colon = system: COLO 205 colon
# NCI/ADR-RES ovarian = system: NCI/ADR-RES ovarian
# KM12 colon = system: KM12 colon
# U251 CNS = system: U251 CNS
# NCI-H522 lung = system: NCI-H522 lung
# NCI-H23 lung = system: NCI-H23 lung
# HT29 colon = system: HT29 colon
# A549 NSCLC = system: A549 NSCLC
# SK-MEL-5 melanoma = system: SK-MEL-5 melanoma
# OVCAR-8 ovarian = system: OVCAR-8 ovarian
# SK-OV-3 ovarian = system: SK-OV-3 ovarian
# SF-539 CNS = system: SF-539 CNS
# CAKI-1 renal = system: CAKI-1 renal
# EKVX NSCLC = system: EKVX NSCLC
# SK-MEL-2 melanoma = system: SK-MEL-2 melanoma
# OVCAR-5 ovarian = system: OVCAR-5 ovarian
# ACHN renal = system: ACHN renal
# NCI-H460 lung = system: NCI-H460 lung
# K-562 leukemia = system: K-562 leukemia
# SF-295 CNS = system: SF-295 CNS
# T-47D breast = system: T-47D breast
# NCI-H226 lung = system: NCI-H226 lung
# UO-31 renal = system: UO-31 renal
# UACC-62 melanoma = system: UACC-62 melanoma
# SNB-19 CNS = system: SNB-19 CNS
# MCF7 breast = system: MCF7 breast
# DU-145 prostate = system: DU-145 prostate
# PC-3 prostate = system: PC-3 prostate
# HCC-2998 colon = system: HCC-2998 colon
# SN12C renal = system: SN12C renal
# OVCAR-3 ovarian = system: OVCAR-3 ovarian
# TK-10 renal = system: TK-10 renal
# SF-268 CNS = system: SF-268 CNS
# 786-0 renal = system: 786-0 renal
# M14 melanoma = system: M14 melanoma
# BT-549 breast = system: BT-549 breast
# SW-620 colon = system: SW-620 colon
# CCRF-CEM leukemia = system: CCRF-CEM leukemia
# HOP-62 NSCLC = system: HOP-62 NSCLC
# A498 renal = system: A498 renal
# RPMI-8226 leukemia = system: RPMI-8226 leukemia
# OVCAR-4 ovarian = system: OVCAR-4 ovarian
# MOLT-4 leukemia = system: MOLT-4 leukemia
# IGROV1 ovarian = system: IGROV1 ovarian
# UACC-257 melanoma = system: UACC-257 melanoma
# HS 578T breast = system: HS 578T breast
# SNB-75 CNS = system: SNB-75 CNS
smiles,measurement,setting,value
Cc1cc([C@@H](C)Nc2ccccc2C(=O)O)c2nc(N3CCOCC3)cc(=O)n2c1,GI50,SK-MEL-28 melanoma,> 10 µM
same,TGI,SK-MEL-28 melanoma,> 10 µM
same,GI50,HOP-92 NSCLC,0.175 µM
same,TGI,HOP-92 NSCLC,6.08 µM
same,GI50,MDA-MB-435,> 10 µM
same,TGI,MDA-MB-435,> 10 µM
same,GI50,MDA-MB-231 breast,> 10 µM
same,TGI,MDA-MB-231 breast,> 10 µM
same,GI50,HL-60(TB) leukemia,5.5 µM
same,TGI,HL-60(TB) leukemia,> 10 µM
same,GI50,HCT-15 colon,> 10 µM
same,TGI,HCT-15 colon,> 10 µM
same,GI50,MALME-3M melanoma,> 10 µM
same,TGI,MALME-3M melanoma,> 10 µM
same,GI50,LOX IMVI melanoma,6.73 µM
same,TGI,LOX IMVI melanoma,> 10 µM
same,GI50,RXF 393 renal,0.0564 µM
same,TGI,RXF 393 renal,1.33 µM
same,GI50,HCT-116 colon,2.76 µM
same,TGI,HCT-116 colon,> 10 µM
same,GI50,COLO 205 colon,> 10 µM
same,TGI,COLO 205 colon,> 10 µM
same,GI50,NCI/ADR-RES ovarian,> 10 µM
same,TGI,NCI/ADR-RES ovarian,> 10 µM
same,GI50,KM12 colon,> 10 µM
same,TGI,KM12 colon,> 10 µM
same,GI50,U251 CNS,> 10 µM
same,TGI,U251 CNS,> 10 µM
same,GI50,NCI-H522 lung,> 10 µM
same,TGI,NCI-H522 lung,> 10 µM
same,GI50,NCI-H23 lung,> 10 µM
same,TGI,NCI-H23 lung,> 10 µM
same,GI50,HT29 colon,> 10 µM
same,TGI,HT29 colon,> 10 µM
same,GI50,A549 NSCLC,> 10 µM
same,TGI,A549 NSCLC,> 10 µM
same,GI50,SK-MEL-5 melanoma,> 10 µM
same,TGI,SK-MEL-5 melanoma,> 10 µM
same,GI50,OVCAR-8 ovarian,> 10 µM
same,TGI,OVCAR-8 ovarian,> 10 µM
same,GI50,SK-OV-3 ovarian,1.08 µM
same,TGI,SK-OV-3 ovarian,> 10 µM
same,GI50,SF-539 CNS,7.11 µM
same,TGI,SF-539 CNS,> 10 µM
same,GI50,CAKI-1 renal,6.28 µM
same,TGI,CAKI-1 renal,> 10 µM
same,GI50,EKVX NSCLC,> 10 µM
same,TGI,EKVX NSCLC,> 10 µM
same,GI50,SK-MEL-2 melanoma,> 10 µM
same,TGI,SK-MEL-2 melanoma,> 10 µM
same,GI50,OVCAR-5 ovarian,> 10 µM
same,TGI,OVCAR-5 ovarian,> 10 µM
same,GI50,ACHN renal,> 10 µM
same,TGI,ACHN renal,> 10 µM
same,GI50,NCI-H460 lung,> 10 µM
same,TGI,NCI-H460 lung,> 10 µM
same,GI50,K-562 leukemia,> 10 µM
same,TGI,K-562 leukemia,> 10 µM
same,GI50,SF-295 CNS,1.85 µM
same,TGI,SF-295 CNS,> 10 µM
same,GI50,T-47D breast,0.207 µM
same,TGI,T-47D breast,1.94 µM
same,GI50,NCI-H226 lung,> 10 µM
same,TGI,NCI-H226 lung,> 10 µM
same,GI50,UO-31 renal,2.43 µM
same,TGI,UO-31 renal,> 10 µM
same,GI50,UACC-62 melanoma,0.627 µM
same,TGI,UACC-62 melanoma,> 10 µM
same,GI50,SNB-19 CNS,> 10 µM
same,TGI,SNB-19 CNS,> 10 µM
same,GI50,MCF7 breast,3.36 µM
same,TGI,MCF7 breast,> 10 µM
same,GI50,DU-145 prostate,> 10 µM
same,TGI,DU-145 prostate,> 10 µM
same,GI50,PC-3 prostate,3.73 µM
same,TGI,PC-3 prostate,> 10 µM
same,GI50,HCC-2998 colon,> 10 µM
same,TGI,HCC-2998 colon,> 10 µM
same,GI50,SN12C renal,> 10 µM
same,TGI,SN12C renal,> 10 µM
same,GI50,OVCAR-3 ovarian,6.02 µM
same,TGI,OVCAR-3 ovarian,> 10 µM
same,GI50,TK-10 renal,> 10 µM
same,TGI,TK-10 renal,> 10 µM
same,GI50,SF-268 CNS,> 10 µM
same,TGI,SF-268 CNS,> 10 µM
same,GI50,786-0 renal,1.23 µM
same,TGI,786-0 renal,> 10 µM
same,GI50,M14 melanoma,> 10 µM
same,TGI,M14 melanoma,> 10 µM
same,GI50,BT-549 breast,1.17 µM
same,TGI,BT-549 breast,> 10 µM
same,GI50,SW-620 colon,> 10 µM
same,TGI,SW-620 colon,> 10 µM
same,GI50,CCRF-CEM leukemia,> 10 µM
same,TGI,CCRF-CEM leukemia,> 10 µM
same,GI50,HOP-62 NSCLC,> 10 µM
same,TGI,HOP-62 NSCLC,> 10 µM
same,GI50,A498 renal,0.0166 µM
same,TGI,A498 renal,0.0945 µM
same,GI50,RPMI-8226 leukemia,> 10 µM
same,TGI,RPMI-8226 leukemia,> 10 µM
same,GI50,OVCAR-4 ovarian,> 10 µM
same,TGI,OVCAR-4 ovarian,> 10 µM
same,GI50,MOLT-4 leukemia,5.42 µM
same,TGI,MOLT-4 leukemia,> 10 µM
same,GI50,IGROV1 ovarian,1.85 µM
same,TGI,IGROV1 ovarian,> 10 µM
same,GI50,UACC-257 melanoma,> 10 µM
same,TGI,UACC-257 melanoma,> 10 µM
same,GI50,HS 578T breast,0.122 µM
same,TGI,HS 578T breast,8.14 µM
same,GI50,SNB-75 CNS,0.43 µM
same,TGI,SNB-75 CNS,> 10 µM
